We go through 7 compounds from article PMC5394143 (Clinical Drug Investigation, 2017).

Read-outs that look alike come from different tables or passages of the source. Where only a bound is given, the exact number is not on record here.

For series [1] the following is noted: for AUC(0-inf) / Cmax / half-life / AUC(0-t): both, human, plasma; for AUC(0-inf) / Cmax / half-life: oral; for AUC(0-t): po.
Series [2] can be described thus: clinical. The settings on record: both, human, plasma, oral, 50 mg.
Series [3] concerns CYP3A4. The settings on record: cited from earlier work.
For series [4], the system named is CYP3A4. The settings on record: cited from earlier work. The source holds these as a separate data set.
Series [5] can be described thus: clinical. To be noted: both, human, plasma, po, 50 mg.
For another series, the system named is CYP3A4/5. The settings on record: single dose of 50 mg osilodrostat.
For series [6] the following is noted: cited from earlier work.
The test system of series [7] is urinary free cortisol (UFC). To be noted: after 22 weeks of treatment, 15/19 patients; cited from earlier work.
For series [8] the following is noted: safety set, 20 subjects.
Series [9] relates to urinary free cortisol (UFC). To be noted: 2–30 mg twice daily, 10 weeks, 11/12 patients with Cushing’s disease; cited from earlier work.
Another series has as its system CYP1A2. To be noted: single dose of 50 mg osilodrostat.
The next series has as its target CYP2D6 (Homo sapiens, UniProt P10635). The settings on record: single dose of 50 mg osilodrostat.
Where [10] appears, read: substrate alone, geometric mean (CV%).
[11] abbreviates: C max, substrate alone, geometric mean (CV%).

Chain of CYP2D6 (P10635 whole entry): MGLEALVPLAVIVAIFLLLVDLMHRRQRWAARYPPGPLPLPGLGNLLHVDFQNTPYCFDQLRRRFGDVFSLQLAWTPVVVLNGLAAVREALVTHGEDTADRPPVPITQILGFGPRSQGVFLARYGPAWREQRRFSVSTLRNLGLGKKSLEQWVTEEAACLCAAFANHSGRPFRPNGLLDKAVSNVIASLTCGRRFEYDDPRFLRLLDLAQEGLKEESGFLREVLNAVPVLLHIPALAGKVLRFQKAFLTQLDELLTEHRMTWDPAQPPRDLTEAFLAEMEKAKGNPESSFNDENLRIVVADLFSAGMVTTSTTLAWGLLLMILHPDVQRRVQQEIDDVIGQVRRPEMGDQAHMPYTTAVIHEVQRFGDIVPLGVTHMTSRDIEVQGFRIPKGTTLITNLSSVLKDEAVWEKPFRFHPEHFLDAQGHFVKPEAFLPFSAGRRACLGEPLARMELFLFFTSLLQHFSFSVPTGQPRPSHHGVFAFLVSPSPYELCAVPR

Regarding `Cn1c(=O)c2c(ncn2C)n(C)c1=O` [Caffeine, caffeine], in series [1], the AUC(0-inf) (usually the area under the concentration-time curve extrapolated to infinity) was 16200 ng·h/mL; the Cmax (commonly the highest concentration seen after dosing) is 2500 ng/mL; the half-life (as a rule, the time needed for the level to fall by half in the phase considered) was 5.39 h; the AUC(0-t) (commonly the area under the concentration-time curve up to a stated or last time point) was found to be 17200 ng·h/mL. Besides, the CL/F in series [1] (setting [10]) is reported as 6.18 (44.8) L/h. Besides, in “clinical [2]”, the AUC(0-inf) worked out at 41900 ng·h/mL, the AUC(0-t) was 41100 ng·h/mL, the Cmax amounted to 2640 ng/mL and the half-life was 7.39 h.

`COc1ccc2c(c1)[C@]13CCCC[C@@H]1[C@H](C2)N(C)CC3` [Dextromethorphan, dextromethorphan]: in series [1], the AUC(0-inf) came to 22.8 ng·h/mL and the half-life is 7.63 h. Moreover, the highest concentration (Cmax) in series [1] (setting [11]) came out at 1.24 ng/mL. Further, in series [1] (setting [10]), the CL/F is 1310 (193.8) L/h.

Consider `CC(=O)N1CCN(c2ccc(OCC3COC(Cn4ccnc4)(c4ccc(Cl)cc4Cl)O3)cc2)CC1` (stereo not drawn) [Ketoconazole, ketoconazole], for which the “FDA inhibitor classification, CYP3A4” value with CYP3A4 [3] (based on midazolam AUC change) is on record as “strong inhibitor (strong inhibitor, ≥5-fold increase in AUC)”. For the same compound, the “increase in midazolam AUC after ketoconazole administration” value in the series on CYP3A4 [3] was not above 16 fold.

With `Cc1ncc2n1-c1ccc(Cl)cc1C(c1ccccc1F)=NC2` [Midazolam, midazolam], in series [1], the AUC(0-inf) is 22 ng·h/mL and the half-life was 4.44 h. Moreover, the Cmax in [1] (setting [11]) is 8.78 ng/mL. Besides, the CL/F in series [1] (setting [10]) is listed as 91.0 (39.6) L/h. In addition, in “clinical [2]”, the AUC(0-t) turned out to be 31.7 ng·h/mL, the peak level (Cmax) was 12.8 ng/mL and the half-life was 4.81 h.

Consider `Clc1ccc(C(c2ccccc2Cl)C(Cl)Cl)cc1` (stereo not drawn) [Mitotane, mitotane], for which the “CYP3A4 induction” value in the series with CYP3A4 [4] is on record as “strong inducer”.

In series [1], `COc1ccc2[nH]c([S+]([O-])Cc3ncc(C)c(OC)c3C)nc2c1` (stereo not drawn) [Omeprazole, omeprazole] had an AUC(0-inf) of 618 ng·h/mL, a half-life of 0.77 h and an AUC(0-t) of 460 ng·h/mL. In series [1] (setting [10]), the C max is recorded as 271 (69.7) ng/mL and the CL/F was 32.3 (92.9) L/h. In “clinical [2]”, this compound yielded an AUC(0-inf) of 885 ng·h/mL, an AUC(0-t) of 852 ng·h/mL and a Cmax of 420 ng/mL.

In the case of `N#Cc1ccc([C@H]2CCc3cncn32)c(F)c1` [Osilodrostat], in the series “clinical [5]”, the AUC(0-inf) came to 3430 ng·h/mL; the highest level (Cmax) was 392 ng/mL; the Tmax (in general, the time from dosing to the highest level) was approximately 1.53 h; the half-life was 4.73 h. Moreover, in the series on CYP3A4/5, the “FDA inhibitor classification, CYP3A4/5” value was “weak inhibitor (weak inhibitor, ≥1.25- but <2-fold increase in AUC)”. Also, in series [6], the half-life is 3 to 5 h. The “patients with normalized UFC” value in series [7] is 79%. Besides, in series [8], the “fatigue (suspected drug related)” value is 15%; the “flatulence and diarrhea (suspected drug related)” value stood at 5%; the “grade 3 or 4 AEs or serious AEs” value is given as “No grade 3 or 4 AEs, or serious AEs”; the “subjects with AEs suspected to be drug related” value was determined as 30%. In series [9], the “patients with normalized UFC” value is 92%. In addition, the “FDA inhibitor classification, CYP1A2” value with CYP1A2 is “moderate inhibitor (moderate inhibitor, ≥2- but <5-fold increase in AUC)”. Besides, on CYP2D6, the “FDA inhibitor classification, CYP2D6” value is listed as “weak inhibitor (weak inhibitor, ≥1.25- but <2-fold increase in AUC)”.
